Data reported in US11753446B2, “Beta-hairpin peptidomimetics” (POLYPHOR AG, priority 2014, dated 2023).
Read-outs that look alike come from different tables or passages of the source. Where a SMILES comes first, the peptide text is derived from it. Bridges are numbered along the chain shown (N, C = ends). Triazole bridges read from a SMILES are 1,4-linked. [ ]: non-standard residue; d: D form. Aha = [N-]=[N+]=NCC[C@H](N)C(=O)O; Tle = CC(C)(C)[C@H](N)C(=O)O; dDab = NCC[C@@H](N)C(=O)O; Orn = NCCC[C@H](N)C(=O)O; Pra = C#CC[C@H](N)C(=O)O; Dab = NCC[C@H](N)C(=O)O; Dap = NC[C@H](N)C(=O)O

Tests used:
[1] = system: human red blood cells (hRBC); assay: Hemolysis: hemolytic activity at 100 μg/mL, 1 h at 37° C.
Procedure, shortened: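 Peptides at 100 μg/mL incubated with washed 20% (v/v) human erythrocytes (~0.9×10^9 cells/mL) for 1 h at 37 °C with shaking. Released hemoglobin read at OD 540 nm in supernatant; 0% and 100% lysis from PBS/0.001% acetic acid and 2.5% Triton X-100.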

[2] = system: Klebsiella pneumoniae ATCC 13883; assay type: cell-based
Procedure, shortened: (§1)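 Peptide MICs were determined by NCCLS broth microdilution in cation-adjusted Mueller-Hinton II broth. Inoculum was about 10^6 CFU/mL, matched to 0.5 McFarland, with peptides in two-fold serial dilutions. The broth contained Polysorbate 80 at 0.002% final concentration.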

[3] = system: Escherichia coli ATCC 25922; assay type: cell-based
Procedure, shortened: as §1

[4] = system: Acinetobacter baumannii DSM 30008; assay type: cell-based
Procedure, shortened: as §1

[5] = Mueller-Hinton II broth, 18-20 hours at 35° C.

SMILES	Hemolysis at 100 μg/mL ([1]; red cells of human, 1 h, 100)	Klebsiella pneumoniae ATCC 13883 MIC ([2]; ATCC 13883)	Escherichia coli ATCC 25922 MIC ([3]; ATCC 25922)	Acinetobacter baumannii DSM 30008 MIC ([4]; DSM 30008)	Hemolysis at 100 μg/mL ([1]; 100 μg/mL, 20% hRBC, 1 h at 37° C.)	Klebsiella pneumoniae ATCC 13883 MIC [2, 5]	Escherichia coli ATCC 25922 MIC [3, 5]	Acinetobacter baumannii DSM 30008 MIC [4, 5]
CC(C)C[C@@H]1NC(=O)[C@H](CCCNC(=N)N)NC(=O)[C@@H](CCN)NC(=O)[C@H](C(C)C)NC(=O)[C@@H]2CSSC[C@H](NC1=O)C(=O)N[C@@H](Cc1ccc(O)cc1)C(=O)N[C@@H](CCC(N)=O)C(=O)N[C@@H](CCCN)C(=O)N[C@H](CCN)C(=O)N[C@@H](CCN)C(=O)N[C@@H](Cc1c[nH]c3ccccc13)C(=O)N[C@@H](CO)C(=O)N[C@@H](Cc1ccc(O)cc1)C(=O)N2 [Example 62, cyclo(-Leu-Cys-Tyr-Gln-Orn-^DDab-Dab-Trp-Ser-Tyr-Cys-Val-^DDab-Arg-)] (HELM PEPTIDE1{C.V.[NCC[C@@H](N[*:1])C(=O)[*:2]].R.L.C.Y.Q.[Orn].[NCC[C@@H](N[*:1])C(=O)[*:2]].[Dab].W.S.Y}$PEPTIDE1,PEPTIDE1,1:R3-6:R3|PEPTIDE1,PEPTIDE1,1:R1-14:R2$$$V2.0)	2%	1 µg/mL	0.375 µg/mL	0.625 µg/mL				
CC(C)[C@@H]1NC(=O)[C@H](C)NC(=O)[C@@H](C)NC(=O)[C@H](CO)NC(=O)[C@@H]2CC(=O)NCC[C@H](NC1=O)C(=O)N[C@@H](Cc1ccc(O)cc1)C(=O)N[C@@H](CCN)C(=O)N[C@@H](CCN)C(=O)N[C@H](CCN)C(=O)N[C@@H](CCN)C(=O)N[C@@H](Cc1c[nH]c3ccccc13)C(=O)N[C@@H](CCN)C(=O)N[C@@H](C(C)(C)C)C(=O)N2 [Example 30, cyclo(-Val-Dab-Tyr-Dab-Dab-^DDab-Dab-Trp-Dab-tBuGly-Asp-Ser-^DAla-Ala-)] (HELM PEPTIDE1{A.V.[Dab].Y.[Dab].[Dab].[NCC[C@@H](N[*:1])C(=O)[*:2]].[Dab].W.[Dab].[CC(C)(C)[C@H](N[*:1])C(=O)[*:2]].D.S.[dA]}$PEPTIDE1,PEPTIDE1,3:R3-12:R3|PEPTIDE1,PEPTIDE1,1:R1-14:R2$$$V2.0)	1%	2 µg/mL	1 µg/mL	8 µg/mL				
CC[C@H](C)[C@@H]1NC(=O)[C@@H]2CCCN2C(=O)[C@@H](CCN)NC(=O)[C@H](CO)NC(=O)[C@H](C)NC(=O)[C@H](C(C)(C)C)NC(=O)[C@H](CCN)NC(=O)[C@H](Cc2c[nH]c3ccccc23)NC(=O)[C@H](CCN)NC(=O)[C@@H](CCN)NC(=O)[C@H](CCCN)NC(=O)[C@H](CCN)NC(=O)[C@H](Cc2ccc(O)cc2)NC(=O)[C@H]([C@@H](C)O)NC1=O [Example 48, cyclo(-Ile-Thr-Tyr-Dab-Orn-^DDab-Dab-Trp-Dab-tBuGly-Ala-Ser-^DDab-Pro-)] (cyclo(AS[dDab]PITY[Dab][Orn][dDab][Dab]W[Dab][Tle]))	1%	2 µg/mL	1 µg/mL	8 µg/mL				
CC[C@H](C)[C@@H]1NC(=O)[C@H](CCCNC(=N)N)NC(=O)[C@@H](CCN)NC(=O)[C@H](C(C)C)NC(=O)[C@@H]2CSSC[C@H](NC1=O)C(=O)N[C@@H](Cc1ccc(O)cc1)C(=O)N[C@@H](CC(N)=O)C(=O)N[C@@H](CCCN)C(=O)N[C@H](CCN)C(=O)N[C@@H](CCN)C(=O)N[C@@H](Cc1c[nH]c3ccccc13)C(=O)N[C@@H](CO)C(=O)N[C@@H](Cc1ccc(O)cc1)C(=O)N2 [Example 70, cyclo(-Ile-Cys-Tyr-Asn-Orn-^DDab-Dab-Trp-Ser-Tyr-Cys-Val-^DDab-Arg-)] (HELM PEPTIDE1{C.V.[NCC[C@@H](N[*:1])C(=O)[*:2]].R.I.C.Y.N.[Orn].[NCC[C@@H](N[*:1])C(=O)[*:2]].[Dab].W.S.Y}$PEPTIDE1,PEPTIDE1,1:R3-6:R3|PEPTIDE1,PEPTIDE1,1:R1-14:R2$$$V2.0)	1%	1 µg/mL	1 µg/mL	2.25 µg/mL				
CC(C)C[C@@H]1NC(=O)[C@H](CCCNC(=N)N)NC(=O)[C@@H](CCN)NC(=O)[C@H](C(C)C)NC(=O)[C@@H]2CSSC[C@H](NC1=O)C(=O)N[C@@H](C(C)C)C(=O)N[C@@H](CC(N)=O)C(=O)N[C@@H](CCCN)C(=O)N[C@H](CCN)C(=O)N[C@@H](CCN)C(=O)N[C@@H](Cc1c[nH]c3ccccc13)C(=O)N[C@@H](CO)C(=O)N[C@@H](Cc1ccc(O)cc1)C(=O)N2 [Example 18, cyclo(-Leu-Cys-Val-Asn-Orn-^DDab-Dab-Trp-Ser-Tyr-Cys-Val-^DDab-Arg-)] (HELM PEPTIDE1{C.V.N.[Orn].[NCC[C@@H](N[*:1])C(=O)[*:2]].[Dab].W.S.Y.C.V.[NCC[C@@H](N[*:1])C(=O)[*:2]].R.L}$PEPTIDE1,PEPTIDE1,1:R3-10:R3|PEPTIDE1,PEPTIDE1,1:R1-14:R2$$$V2.0)	8%	0.5 µg/mL	0.5 µg/mL	0.25 µg/mL				
CC(C)[C@@H]1NC(=O)[C@@H]2CCCN2C(=O)[C@@H](Cc2ccc(O)cc2)NC(=O)[C@H]([C@@H](C)O)NC(=O)[C@@H]2CSSC[C@H](NC1=O)C(=O)N[C@@H](Cc1ccc(O)cc1)C(=O)N[C@@H](CCN)C(=O)N[C@@H](CN)C(=O)N[C@@H](CCN)C(=O)N[C@@H](CCN)C(=O)N[C@@H](Cc1c[nH]c3ccccc13)C(=O)N[C@@H](CCN)C(=O)N[C@@H](C(C)(C)C)C(=O)N2 [Example 15, cyclo(-Val-Cys-Tyr-Dab-Dap-Dab-Dab-Trp-Dab-tBuGly-Cys-Thr-^DTyr-Pro-)] (HELM PEPTIDE1{C.T.[dY].P.V.C.Y.[Dab].[NC[C@H](N[*:1])C(=O)[*:2]].[Dab].[Dab].W.[Dab].[CC(C)(C)[C@H](N[*:1])C(=O)[*:2]]}$PEPTIDE1,PEPTIDE1,1:R3-6:R3|PEPTIDE1,PEPTIDE1,1:R1-14:R2$$$V2.0)					2%	0.25 µg/mL	0.5 µg/mL	0.5 µg/mL
CC(C)[C@@H]1NC(=O)[C@@H]2CCCN2C(=O)[C@H]2CCCN2C(=O)[C@H](CO)NC(=O)[C@@H]2CCn3cc(nn3)C[C@H](NC1=O)C(=O)N[C@@H](Cc1ccc(O)cc1)C(=O)N[C@@H](CCN)C(=O)N[C@@H](CN)C(=O)N[C@H](CCN)C(=O)N[C@@H](CCN)C(=O)N[C@@H](Cc1c[nH]c3ccccc13)C(=O)N[C@@H](CCN)C(=O)N[C@@H](C(C)(C)C)C(=O)N2 [Example 34, cyclo(-Val-Pra-Tyr-Dab-Dap-^DDab-Dab-Trp-Dab-tBuGly-Abu(4N3)-Ser-^DPro-Pro-)] (cyclo(V[Pra]Y[Dab][Dap][dDab][Dab]W[Dab][Tle][Aha]S[dP]P); triazole 2-11)	0%	2 µg/mL	4 µg/mL	4 µg/mL				
CC[C@H](C)[C@@H]1NC(=O)[C@H](CCCNC(=N)N)NC(=O)[C@@H](CCN)NC(=O)[C@H](CO)NC(=O)[C@@H]2CSSC[C@H](NC1=O)C(=O)N[C@@H](Cc1ccc(O)cc1)C(=O)N[C@@H](CCN)C(=O)N[C@@H](CCCN)C(=O)N[C@H](CCN)C(=O)N[C@@H](CCN)C(=O)N[C@@H](Cc1c[nH]c3ccccc13)C(=O)N[C@@H](CCN)C(=O)N[C@@H](C(C)(C)C)C(=O)N2 [Example 12, cyclo(-Ile-Cys-Tyr-Dab-Orn-^DDab-Dab-Trp-Dab-tBuGly-Cys-Ser-^DDab-Arg-)] (cyclo(CS[dDab]RICY[Dab][Orn][dDab][Dab]W[Dab][Tle]); disulfide 1-6)	1%	1 µg/mL	0.5 µg/mL	1 µg/mL				
CC(C)C[C@@H]1NC(=O)[C@H](CCCNC(=N)N)NC(=O)[C@@H](CCN)NC(=O)[C@H](Cc2ccc(O)cc2)NC(=O)[C@@H]2CSSC[C@H](NC1=O)C(=O)N[C@@H](Cc1ccc(O)cc1)C(=O)N[C@@H](C(C)C)C(=O)N[C@@H](CCCN)C(=O)N[C@H](CCN)C(=O)N[C@@H](CCN)C(=O)N[C@@H](Cc1c[nH]c3ccccc13)C(=O)N[C@@H](Cc1ccc(O)cc1)C(=O)N[C@@H](Cc1ccc(O)cc1)C(=O)N2 [Example 22, cyclo(-Leu-Cys-Tyr-Val-Orn-^DDab-Dab-Trp-Tyr-Tyr-Cys-Tyr-^DDab-Arg-)] (HELM PEPTIDE1{C.Y.V.[Orn].[NCC[C@@H](N[*:1])C(=O)[*:2]].[Dab].W.Y.Y.C.Y.[NCC[C@@H](N[*:1])C(=O)[*:2]].R.L}$PEPTIDE1,PEPTIDE1,1:R3-10:R3|PEPTIDE1,PEPTIDE1,1:R1-14:R2$$$V2.0)	6%	1 µg/mL	0.5 µg/mL	0.5 µg/mL				
CC(C)[C@@H]1NC(=O)[C@@H]2CCCN2C(=O)[C@@H](C)NC(=O)[C@H](CO)NC(=O)[C@@H]2CC(=O)NCC[C@H](NC1=O)C(=O)N[C@@H](Cc1ccc(O)cc1)C(=O)N[C@@H](CCN)C(=O)N[C@@H](CN)C(=O)N[C@H](CCN)C(=O)N[C@@H](CCN)C(=O)N[C@@H](Cc1c[nH]c3ccccc13)C(=O)N[C@@H](CCN)C(=O)N[C@@H](C(C)(C)C)C(=O)N2 [Example 27, cyclo(-Val-Dab-Tyr-Dab-Dap-^DDab-Dab-Trp-Dab-tBuGly-Asp-Ser-^DAla-Pro-)] (cyclo(DS[dA]PV[Dab]Y[Dab][Dap][dDab][Dab]W[Dab][Tle]); lactam 1-6)	2%	0.5 µg/mL	0.5 µg/mL	1 µg/mL				
